Measurements reported in paper doi:10.1101/844506v1 (biorxiv, 2019).

Molecular target: B8CYA8 (β-glucosidase from Halothermothrix orenii) (Halothermothrix orenii, UniProt B8CYA8)
Assay: melting temperature shift
Type: binding
Conditions: 0.5 M glucose

Chain of B8CYA8 (β-glucosidase from Halothermothrix orenii) (B8CYA8 1-451): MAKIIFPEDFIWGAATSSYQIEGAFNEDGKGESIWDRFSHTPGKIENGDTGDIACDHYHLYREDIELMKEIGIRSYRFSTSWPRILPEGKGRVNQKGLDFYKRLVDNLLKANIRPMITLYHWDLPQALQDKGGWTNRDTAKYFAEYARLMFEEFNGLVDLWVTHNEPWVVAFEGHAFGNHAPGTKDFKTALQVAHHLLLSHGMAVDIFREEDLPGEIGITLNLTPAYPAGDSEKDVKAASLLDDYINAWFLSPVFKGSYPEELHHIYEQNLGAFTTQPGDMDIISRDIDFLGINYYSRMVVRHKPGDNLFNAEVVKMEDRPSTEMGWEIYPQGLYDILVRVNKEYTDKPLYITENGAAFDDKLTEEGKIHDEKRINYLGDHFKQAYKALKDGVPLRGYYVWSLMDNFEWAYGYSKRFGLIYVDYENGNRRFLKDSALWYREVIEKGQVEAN

increase in melting temperature: 4-5 °C
SMILES: OC[C@H]1OC(O)[C@H](O)[C@@H](O)[C@@H]1O (stereo partly shown) [glucose]
